How the values were obtained:
cells = conditions: Homo sapiens, HT-29, 72 h
Description: Cytotoxicity against human HT-29 cells assessed as reduction in cell viability after 72 hrs by MTT assay

[1] = Cytotoxicity against human HepG2 cells assessed as reduction in cell viability after 72 hrs by MTT assay; format: functional, cell-based; conditions: HepG2, 72 h
[2] = Cytotoxicity against human A549 cells assessed as reduction in cell viability after 72 hrs by MTT assay; format: functional, cell-based; conditions: A549, 72 h
[3] = Cytotoxicity against human PC3 cells assessed as reduction in cell viability after 72 hrs by MTT assay; format: functional, cell-based; conditions: PC-3, 72 h
[4] = Cytotoxicity against human HL-7702 cells assessed as reduction in cell viability after 72 hrs by MTT assay; format: toxicity, cell-based, L02

| IC50 (cells) [µM] | Structure (SMILES) | IC50 [1] [µM] | IC50 [2] [µM] | IC50 [3] [µM] | IC50 at 72 h [4] [µM] |
| --- | --- | --- | --- | --- | --- |
| 2.3 | CO[C@]12C=C3C(=O)c4c(O)c(CC=C(C)C)c(O)c(CC=C(C)C)c4O[C@]34C(C1)C(C)(C)O[C@]4(CC=C(C)C)C2=O | 2.9 | 2.9 | 2.3 | 3.1 |
| > 10 | C=C(C)[C@H]1C[C@](C/C=C(\C)CCC=C(C)C)(C(=O)O)c2c(oc3c(CC=C(C)C)c(O)cc(O)c3c2=O)[C@@H]1O | > 10 | > 10 | > 10 | – |
| > 10 | CC(C)=CCC1=C(O)C(=O)C(CC=C(C)C)(CC=C(C)C)c2c1oc1cc(O)cc(O)c1c2=O | > 10 | > 10 | > 10 | – |
| 4.1 | CC(C)=CCC1(CC=C(C)C)C(=O)C(O)=C(O)c2oc3c4c(cc(O)c3c(=O)c21)OC(C)(C)C=C4 | 6.2 | 5.5 | 3.2 | 6.4 |
| > 10 | CC(C)=CCC/C(C)=C/C[C@]1(C(=O)O)CC(=C(C)C)C(=O)c2oc3c(CC=C(C)C)c(O)cc(O)c3c(=O)c21 | > 10 | > 10 | > 10 | – |
| > 10 | CC(C)=CCc1cc(C(C)C)c(O)c2oc3c4c(cc(O)c3c(=O)c12)OC(C)(C)C=C4 | > 10 | > 10 | > 10 | – |
| 6.4 | CC(C)=CCC/C(C)=C/C[C@@]1(CC=C(C)C)C(=O)C(O)=C(O)c2oc3c4c(cc(O)c3c(=O)c21)OC(C)(C)C=C4 | > 10 | 5 | 5.9 | > 10 |
| 2.2 | CO[C@]12C=C3C(=O)c4c(O)cc(O)c(CC=C(C)C)c4O[C@]34C(C1)C(C)(C)O[C@]4(CC=C(C)C)C2=O | 2.8 | 3 | 2.1 | 2.5 |
| > 10 | CC(C)=CCc1c(O)cc(O)c2c(=O)c3c(oc12)C(CC=C(C)C)(CC=C(C)C)C(=O)C(O)=C3 | > 10 | > 10 | > 10 | – |
| > 10 | CC(C)=CCc1c(O)c(O)c(O)c2oc3c4c(cc(O)c3c(=O)c12)OC(C)(C)C=C4 | > 10 | > 10 | > 10 | – |
| 4.8 | CO[C@@]12C=C3C(=O)c4c(O)cc5c(c4O[C@@]34[C@@H]1C(C)(C)O[C@@]4(CC=C(C)C)C2=O)C=CC(C)(C)O5 | 4.5 | 3.9 | 4.6 | 8.6 |
| > 10 | CC(C)=CCC1(C(=O)O)CC(=C(C)C)C(=O)c2oc3c4c(cc(O)c3c(=O)c21)OC(C)(C)C=C4 (racemic) | > 10 | > 10 | > 10 | – |
| – | CC(=O)O[C@H]1C(=O)[C@@]2(C)[C@H]([C@H](OC(=O)c3ccccc3)[C@]3(O)C[C@H](OC(=O)[C@H](O)[C@@H](NC(=O)c4ccccc4)c4ccccc4)C(C)=C1C3(C)C)[C@]1(OC(C)=O)CO[C@@H]1C[C@@H]2O [PACLITAXEL] | 0.2 | 0.08 | 0.03 | 0.06 |

Reference: ChEMBL document CHEMBL3861964, “Bioassay-Guided Isolation of Prenylated Xanthone Derivatives from the Leaves of Garcinia oligantha” (J Nat Prod, 2016)
